Literature values, collected in patent publication US11399558B2, “Rebaudioside-D containing sweetener compositions” (Heartland Consumer Products, LLC, priority 2015, dated 2022).
Read-outs that look alike come from different tables or passages of the source.

How the values were obtained:
[1] = heat, acid, and alkaline conditions
[2] = absorbed into the bloodstream in the small intestine
[3] = for Solubility in ethanol: ethanol / alcohol
[4] = on a weight basis
[5] = Chang et al. 1983

Row | Stability [1] | Solubility in DMSO ([3]; DMSO) | Solubility in ethanol [3] | Solubility in ethanol ([3]; listed as Erythritol) | Solubility in water [3] | Solubility in water ([3]; listed as Erythritol) | Stability in carbonated beverages [5] | Structure (SMILES) | Excretion [2] | Sweetness relative to sucrose (cane sugar) [4]
1 | stable | Insoluble | Slight | slightly soluble | Soluble | water soluble |  | OC[C@@H](O)[C@@H](O)CO [Eryrithritol, 1,2,3,4-butanetetrol] | for the most part is excreted unchanged in the urine | about 70%
2 |  |  |  |  |  |  | heat and pH stability | C=C1C[C@@]23CC[C@H]4[C@@](C)(CCC[C@@]4(C)C(=O)O[C@@H]4O[C@H](CO)[C@@H](O)[C@H](O)[C@H]4O)[C@@H]2CC[C@]1(O[C@@H]1O[C@H](CO)[C@@H](O)[C@H](O)[C@H]1O[C@@H]1O[C@H](CO)[C@@H](O)[C@H](O)[C@H]1O)C3 [Stevioside] |  | 
3 |  |  |  |  |  |  | heat and pH stability | C=C1C[C@@]23CC[C@H]4[C@@](C)(CCC[C@@]4(C)C(=O)O[C@@H]4O[C@H](CO)[C@@H](O)[C@H](O)[C@H]4O)[C@@H]2CC[C@]1(O[C@@H]1O[C@H](CO)[C@@H](O)[C@H](O[C@@H]2O[C@H](CO)[C@@H](O)[C@H](O)[C@H]2O)[C@H]1O[C@@H]1O[C@H](CO)[C@@H](O)[C@H](O)[C@H]1O)C3 [Rebaudioside A] |  | 
